Patent publication US20240060040A1, “METHODS FOR GENERATING INNER EAR HAIR CELLS” (Ear Science Institute Australia, priority 2020, published 2024)

Assays:
Assay type in all cases: cell-based
[1] = tested on: Human iPSCs derived inner ear organoid; assay: ECAD and PAX2 expression by confocal microscopy (ectodermal cell fate); settings: day 20; treated aggregates, compared with Koehler method
Description: (§1) FIG. 1 illustrates methods for generating inner ear hair cells from the induced pluripotent stem cells. The inventor added a combination of agents and inhibitors at developmental stages of the inner ear organoid culture to produce the invention. In particular: • (i) ROCK inhibitor (Y-27632) is added to iPSC in suspension culture to promote the formation of three-dimensional embryoid bodies for about 3 days. • (ii) TGF-β inhibitor (SB-431542) is added at low concentration of FGF to drive the development of non-neural ectoderm in days 0 to 3. • (iii) The cultures are then transitioned to medium containing a high concentration of FGF and BMP inhibitor (LDN-193189) during days 4-7, which drives development of the early pre-otic placodal epithelium/pre-placodal ectoderm. • (iv) Next, Wnt agonist (CHIR-99021) is added to stimulate development of otic placode from days 8-11, otic pit formation from days 12-14 and otic prosensory vesicles from days 15-17. • (v) From days 18-32, hedgehog signalling inhibitor (CYC, GANT58 or GANT61) is added to promote the formation of sensory epithelium vesicles, and continued culture under these conditions results in the formation of sensory hair cells with neural innervation from day 33 onwards.
To identify the ectodermal cell fate of inner ear organoids at Day 20-40, the ECAD and PAX2 expression in organoids was observed by using confocal microscopy, comparing organoids developed using (a) Koehler's method without Hh inhibitors, (b) the method of Example 1 with cyclopamine as the SHH inhibitor (Example 2), (c) the method of Example 1 with GANT58 as the SHH inhibitor (Example 3) and (d) the method of Example 1 with GANT61 as the SHH inhibitor (Example 4). […] The ectodermal cell fate of the inner ear organoids developed better with the SHH inhibitors compared with the Koehler method. […] The formation of ectodermal cell appeared to be continuous, beginning on day 7 until approximately day 20-40.

[2] = tested on: Human iPSCs derived inner ear organoid; assay: MyosinVIIa and Tuj1 immunostaining with confocal imaging (sensory hair cells and nerve innervation); settings: for sensory hair cells and supporting cells in organoids / sensory hair cells and neuronal cells in organoids: day 33-60; for sensory hair cells and supporting cells in organoids: FIG. 14; for sensory hair cells and neuronal cells in organoids: FIG. 17; for inner ear hair cells and nerve innervation detected: inhibitor 1 μM from day 18, removed day 33, 10% Matrigel
Description: as §1
On day 18, the SHH inhibitor cyclopamine (CAT 239803 from Merck Millipore) was added to the cell culture to reach a final concentration of 1 μM. Matrigel® was also added to the cell culture to reach a concentration of 10%. The cells were cultured in organoid maturation medium until day 33.
On day 33, the cyclopamine was removed from the medium by washing and the droplet aggregates were remained in the cell culture containing 10% Matrigel®.
The cells were then cultured for up to 200 days in the Organoid Maturation Medium containing 10% Matrigel®. 200 μL of medium was changed daily for each well. The cells were cultured until 60-100 days, until an examination of the cell's morphology determined maturation. The viable, medium size and round 3D shape organoids with inner ear sensory cell gene expression markers were selected for analysis.
Inner ear hair cells and nerve innervation was detected after Day 35. The presence and number of inner ear hair cells was detected by immunostaining and capture with confocal imaging.
(§2) To identify the development of sensory hair cells of inner ear organoids at Day 33-60, the MyosinVIIa and Tuj1 expression in organoids was observed by using confocal microscopy. The results are presented in FIG. 14, which compares organoids developed using (a) the method of Example 1 with cyclopamine (Example 2), and (b) the method of Example 1 with GANT58 (Example 2). […] An opaque outer cell mass is indicative of complete re-organization, which was found in organoids developed using each of the SHH inhibitors. In comparison, less translucent epithelium indicative of incomplete or partial re-organization was found in organoids developed using the Koehler method. Sensory hair cell epithelium through the aggregate surface was found in organoids developed using each SHH inhibitor.
as §2, with “MyoVIIa” for “MyosinVIIa”, “17,” for “14,”, “3) and GANT61 (Example 4).” for “2).”, “inhibitors.” for “inhibitors. In comparison, less translucent epithelium indicative of incomplete or partial re-organization was found in organoids developed using the Koehler method.”

[3] = tested on: Human iPSCs derived inner ear organoid; assay: Single cell RNA sequencing and TaqMan qRT-PCR cell fate analysis; settings: for inner ear hair cell differentiation in comparison with organoids developed using the Koehler method: RNA sequencing and TaqMan qRT-PCR, FIGS. 15 and 16; for hair cell and neuronal markers by single cell RNA sequencing: organoids at Day 60, Koehler method ~57.88%
Description: FIG. 1 illustrates methods for generating inner ear hair cells from the induced pluripotent stem cells. The inventor added a combination of agents and inhibitors at developmental stages of the inner ear organoid culture to produce the invention.
To verify the hair cell marker genes in RNAseq transcriptome analysis, quantitative TaqMan® real-time polymerase chain reaction (qRT-PCR) in inner ear organoids was performed to identify the level of hair cell gene expression. FIG. 15 illustrates sensory hair cell-specific gene expression analysis on human iPSCs derived inner ear organoid at Day 60 by single cell RNA sequencing transcriptome analysis. FIG. 16 illustrates otic epithelial-specific gene expression in inner ear organoids at Day 20 and inner ear sensory cell-specific gene expression in inner ear organoids at Day 60 by TaqMan® qRT-PCR analyses. The presence of MyoVI represents inner ear hair cell differentiation.

[4] = tested on: Human iPSCs derived inner ear organoid; assay: SOX2 and Tuj1 expression by confocal microscopy; settings: day 33-60; FIG. 18
Description: as §1
To identify the development of sensory hair cells of inner ear organoids at Day 33-60, the SOX2 and Tuj1 expression in organoids was observed by using confocal microscopy. The results are presented in FIG. 18, which compares organoids developed using (a) the method of Example 1 with cyclopamine (Example 2), and (b) the method of Example 1 with GANT58 (Example 3) and GANT61 (Example 4).

## c1cc(-c2sc(-c3ccncc3)c(-c3ccncc3)c2-c2ccncc2)ccn1 [GANT58]
[1]
  abundance of ECAD/PAX2 positive vesicles with a luminal diameter greater than 50 μm: higher abundance
[2]
  sensory hair cells and supporting cells in organoids: present
  sensory hair cells and neuronal cells in organoids: present
  inner ear hair cells and nerve innervation detected: > 35 days
[3]
  inner ear hair cell differentiation in comparison with organoids developed using the Koehler method: greater inner ear hair cell differentiation
  hair cell and neuronal markers by single cell RNA sequencing: ~91.88%
[4]
  supporting cells and neuronal cells in organoids: present

## CN(C)c1ccccc1CN1CCCN(Cc2ccccc2N(C)C)C1c1ccncc1 [GANT61]
[1]
  abundance of ECAD/PAX2 positive vesicles with a luminal diameter greater than 50 μm: higher abundance
[2]
  sensory hair cells and neuronal cells in organoids: present
  inner ear hair cells and nerve innervation detected: > 35 days
[3]
  inner ear hair cell differentiation in comparison with organoids developed using the Koehler method: greater inner ear hair cell differentiation
[4]
  supporting cells and neuronal cells in organoids: present

## CC1=C2C[C@H]3[C@@H](CC=C4C[C@@H](O)CC[C@@]43C)[C@@H]2CC[C@]12O[C@@H]1C[C@H](C)CN[C@H]1[C@H]2C [cyclopamine]
[1]
  abundance of ECAD/PAX2 positive vesicles with a luminal diameter greater than 50 μm: higher abundance
[2]
  sensory hair cells and supporting cells in organoids: present
  sensory hair cells and neuronal cells in organoids: present
  inner ear hair cells and nerve innervation detected: > 35 days
[3]
  inner ear hair cell differentiation in comparison with organoids developed using the Koehler method: greater inner ear hair cell differentiation
  hair cell and neuronal markers by single cell RNA sequencing: ~74.48%
[4]
  supporting cells and neuronal cells in organoids: present
